US20240317735A1, “HYDROISOQUINOLINE OR HYDRONAPHTHYRIDINE COMPOUNDS FOR THE TREATMENT OF AUTOIMMUNE DISEASE” (Hoffmann-La Roche Inc., priority 2020, published 2024)

Tests used:
[1] = Human microsome stability assay; type: in vitro ADME; settings: 1 μM test compound, 0.5 mg/mL liver microsomal protein, 37° C., pH 7.4
Protocol: The human microsomal stability assay is used for early assessment of metabolic stability of a test compound in human liver microsomes.
Human liver microsomes (Cat. NO.: 452117, Corning, USA; Cat. NO.: H2610, Xenotech, USA) were preincubated with test compound for 10 minutes at 37° C. in 100 mM potassium phosphate buffer, pH 7.4. The reactions were initiated by adding NADPH regenerating system. The final incubation mixtures contained 1 μM test compound, 0.5 mg/mL liver microsomal protein, 1 mM MgCl2, 1 mM NADP, 1 unit/mL isocitric dehydrogenase and 6 mM isocitric acid in 100 mM potassium phosphate buffer, pH 7.4. After incubation times of 0, 3, 6, 9, 15 and 30 minutes at 37° C., 300 μL of cold acetonitrile (including internal standard) was added to 100 μL incubation mixture to terminate the reaction. Following precipitation and centrifugation, the amount of compound remaining in the samples were determined by LC-MS/MS. Controls of no NADPH regenerating system at zero and 30 minutes were also prepared and analyzed.

[2] = molecular target: T1, human TLR8 (Homo sapiens, UniProt Q9NR97); experiment: HEK293-Blue-hTLR-8 cells assay (SEAP reporter, R848 stimulation); type: cell-based; settings: HEK293-Blue-hTLR8 cells, R848, 20 hrs; read-out: HEK/hTLR8 IC50
T1 construct: host or cells: HEK293 (HEK-Blue hTLR8)
T1 sequence (Q9NR97 27-1041): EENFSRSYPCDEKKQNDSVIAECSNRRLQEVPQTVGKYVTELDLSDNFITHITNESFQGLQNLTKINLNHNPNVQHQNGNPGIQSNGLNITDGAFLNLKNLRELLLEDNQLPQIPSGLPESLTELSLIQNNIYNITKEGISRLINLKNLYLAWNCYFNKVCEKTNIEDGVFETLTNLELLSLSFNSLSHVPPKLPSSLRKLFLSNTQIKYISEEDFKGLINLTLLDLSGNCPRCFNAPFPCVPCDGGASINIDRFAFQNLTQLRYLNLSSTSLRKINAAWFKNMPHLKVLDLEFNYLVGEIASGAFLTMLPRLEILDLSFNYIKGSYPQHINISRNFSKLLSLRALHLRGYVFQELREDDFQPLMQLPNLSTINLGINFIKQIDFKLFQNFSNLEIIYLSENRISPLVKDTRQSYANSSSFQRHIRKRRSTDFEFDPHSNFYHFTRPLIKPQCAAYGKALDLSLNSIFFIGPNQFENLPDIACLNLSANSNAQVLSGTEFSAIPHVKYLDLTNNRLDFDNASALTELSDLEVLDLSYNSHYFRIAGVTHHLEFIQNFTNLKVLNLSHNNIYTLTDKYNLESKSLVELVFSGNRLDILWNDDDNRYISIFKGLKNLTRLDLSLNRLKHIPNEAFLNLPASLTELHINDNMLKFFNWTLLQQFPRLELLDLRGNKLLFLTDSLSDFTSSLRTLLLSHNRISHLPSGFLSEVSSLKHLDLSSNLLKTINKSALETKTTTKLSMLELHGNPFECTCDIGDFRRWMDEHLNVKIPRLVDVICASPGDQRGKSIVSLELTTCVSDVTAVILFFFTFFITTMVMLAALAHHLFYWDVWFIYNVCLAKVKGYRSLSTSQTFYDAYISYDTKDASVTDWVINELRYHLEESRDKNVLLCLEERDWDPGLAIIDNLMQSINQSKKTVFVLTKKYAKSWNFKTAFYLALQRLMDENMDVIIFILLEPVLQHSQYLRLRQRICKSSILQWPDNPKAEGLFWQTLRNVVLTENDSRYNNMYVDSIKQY
Protocol: The following tests were carried out in order to determine the activity of the compounds of formula (I) and (Ia) in HEK293-Blue-hTLR-7/8/9 cells assay.
A stable HEK293-Blue-hTLR-8 cell line was purchased from InvivoGen (Cat. #: hkb-htlr8, San Diego, California, USA). These cells were originally designed for studying the stimulation of human TLR8 by monitoring the activation of NF-κB. A SEAP (secreted embryonic alkaline phosphatase) reporter gene was placed under the control of the IFN-β minimal promoter fused to five NF-κB and AP-1-binding sites. The SEAP was induced by activating NF-κB and AP-1 via stimulating HEK-Blue hTLR8 cells with TLR8 ligands. Therefore the reporter expression was declined by TLR8 antagonist under the stimulation of a ligand, such as R848, for incubation of 20 hrs. The cell culture supernatant SEAP reporter activity was determined using QUANTI-Blue™ kit (Cat. #: rep-qb1, Invivogen, San Diego, Ca, USA) at a wavelength of 640 nm, a detection medium that turns purple or blue in the presence of alkaline phosphatase.
HEK293-Blue-hTLR8 cells were incubated at a density of 250,000˜450,000 cells/mL in a volume of 170 μL in a 96-well plate in Dulbecco's Modified Eagle's medium (DMEM) containing 4.5 g/L glucose, […] penicillin, […], […] Normocin, 2 mM L-glutamine, 10% (v/v) heat-inactivated fetal bovine serum with addition of 20 μL test compound in a serial dilution in the presence of final DMSO at 1% and 10 μL of 60 uM R848 in above DMEM, perform incubation under 37° C. in a C02 incubator for 20 hrs. Then 20 μL of the supernatant from each well was incubated with 180 μL Quanti-blue substrate solution at 37° C. for 2 hrs and the absorbance was read at 620-655 nm using a spectrophotometer. The signaling pathway that TLR8 activation leads to downstream NF-κB activation has been widely accepted, and therefore similar reporter assay was modified for evaluating TLR8 antagonist.

Clearance of Human microsome [1] [mL/min/kg]	IC50 [2] [nM]	Compound
6.2	7	C[C@H]1CN(c2ccnc3c2cnn3C)Cc2ccc(OCCN3CCNCC3)cc21 [Example 40, (4R)-4-methyl-2-(1-methylpyrazolo[3,4-b]pyridin-4-yl)-6-(2-piperazin-1-ylethoxy)-3,4-dihydro-1H-isoquinoline]
6.2	2	C[C@H]1CN(c2ccnc3c2cnn3C)Cc2ccc(OC[C@H]3CNCCN3C)cc21 [Example 43, (4R)-4-methyl-2-(1-methylpyrazolo[3,4-b]pyridin-4-yl)-6-[[(2R)-1-methylpiperazin-2-yl]methoxy]-3,4-dihydro-1H-isoquinoline]
6.2	< 0.3	C[C@H]1CN(c2ccnc3c2cnn3C)Cc2ccc(N3CCN(CCN(C)C)CC3)cc21 [Example 38, N,N-dimethyl-2-[4-[(4R)-4-methyl-2-(1-methylpyrazolo[3,4-b]pyridin-4-yl)-3,4-dihydro-1H-isoquinolin-6-yl]piperazin-1-yl]ethanamine]
9.8	17	Cc1cc(N2Cc3ccc(N4CC5(CNCCO5)C4)nc3[C@@H](C)C2)c2cnn(C)c2n1 [Example 68, 2-[(8S)-6-(1,6-dimethylpyrazolo[3,4-b]pyridin-4-yl)-8-methyl-7,8-dihydro-5H-1,6-naphthyridin-2-yl]-5-oxa-2,8-diazaspiro[3.5]nonane]
9.7	2	C[C@H]1CN(c2ccnc3c2cnn3C)Cc2ccc(N3CCC(N4CC[C@@H](N)[C@H](O)C4)CC3)cc21 [Example 29, trans-4-amino-1-[1-[(4R)-4-methyl-2-(1-methylpyrazolo[3,4-b]pyridin-4-yl)-3,4-dihydro-1H-isoquinolin-6-yl]-4-piperidyl]piperidin-3-ol]
7.2	6	Cc1cc(N2Cc3ccc(N4CC5(CNCCO5)C4)cc3[C@@H](C)C2)c2cnn(C)c2n1 [Example 48, 2-[(4R)-2-(1,6-dimethylpyrazolo[3,4-b]pyridin-4-yl)-4-methyl-3,4-dihydro-1H-isoquinolin-6-yl]-5-oxa-2,8-diazaspiro[3.5]nonane]
7.3	2	Cc1cc(N2Cc3ccc(N4CCNCC4)nc3[C@H](C)C2)c2cnn(C)c2n1 [Example 72, (8R)-6-(1,6-dimethylpyrazolo[3,4-b]pyridin-4-yl)-8-methyl-2-piperazin-1-yl-7,8-dihydro-5H-1,6-naphthyridine]
6.8	2	C[C@H]1CN(c2ccnc3c2cnn3C)Cc2ccc(O[C@@H]3C[C@H]4CNCCN4C3)cc21 [Example 42, (4R)-4-methyl-2-(1-methylpyrazolo[3,4-b]pyridin-4-yl)-6-[[(7R,8aS)-1,2,3,4,6,7,8,8a-octahydropyrrolo[1,2-a]pyrazin-7-yl]oxy]-3,4-dihydro-1H-isoquinoline]
6.2	3	CC1CN(c2ccc3c(c2)[C@@H](C)CN(c2ccnc4c2cnn4C)C3)CCN1 (stereo partly drawn) [Example 15, (4R)-4-methyl-6-(3-methylpiperazin-1-yl)-2-(1-methylpyrazolo[3,4-b]pyridin-4-yl)-3,4-dihydro-1H-isoquinoline]
6.2	8	C[C@H]1CN(c2ccnc3c2cnn3C)Cc2ccc(OC3CN(C4CCNCC4)C3)cc21 [Example 41, (4R)-4-methyl-2-(1-methylpyrazolo[3,4-b]pyridin-4-yl)-6-[1-(4-piperidyl)azetidin-3-yl]oxy-3,4-dihydro-1H-isoquinoline]

The remaining lines, values behind:

Compound	Clearance of Human microsome [1] [mL/min/kg]	IC50 [2] [nM]
CO[C@@H]1CN(c2cc3c(cn2)CN(c2cc(C)nc4c2cnn4C)C[C@@H]3C)C[C@H]1N [Example 78, (3R,4R)-4-methoxy-1-[(5R)-7-(1,6-dimethylpyrazolo[3,4-b]pyridin-4-yl)-5-methyl-6,8-dihydro-5H-2,7-naphthyridin-3-yl]pyrrolidin-3-amine]	6.9	52
C[C@H]1CN(c2ccnc3c2cnn3C)Cc2ccc(N3CCN[C@H](CO)C3)cc21 [Example 51, [(2S)-4-[(4R)-4-methyl-2-(1-methylpyrazolo[3,4-b]pyridin-4-yl)-3,4-dihydro-1H-isoquinolin-6-yl]piperazin-2-yl]methanol]	7.7	4
C[C@H]1CN(c2ccnc3c2cnn3C)Cc2ccc(N3CCN(Cc4cn(C)cn4)CC3)cc21 [Example 37, (4R)-4-methyl-6-[4-[(1-methylimidazol-4-yl)methyl]piperazin-1-yl]-2-(1-methylpyrazolo[3,4-b]pyridin-4-yl)-3,4-dihydro-1H-isoquinoline]	8.2	5
C[C@H]1CN(c2ccnc3c2cnn3C)Cc2ccc(N3CCNCC3)cc21 [Example 1, (4R)-4-methyl-2-(1-methylpyrazolo[3,4-b]pyridin-4-yl)-6-piperazin-1-yl-3,4-dihydro-1H-isoquinoline]	6.2	2
CO[C@@H]1CN(c2ccc3c(n2)[C@@H](C)CN(c2cc(C)nc4c2cnn4C)C3)C[C@H]1N [Example 63, (3R,4R)-4-methoxy-1-[(8S)-6-(1,6-dimethylpyrazolo[3,4-b]pyridin-4-yl)-8-methyl-7,8-dihydro-5H-1,6-naphthyridin-2-yl]pyrrolidin-3-amine]	6.2	16
CO[C@@H]1CN(c2ccc3c(c2)[C@@H](C)CN(c2ccnc4c2cnn4C)C3)C[C@H]1N [Example 20, (3R,4R)-4-methoxy-1-[(4R)-4-methyl-2-(1-methylpyrazolo[3,4-b]pyridin-4-yl)-3,4-dihydro-1H-isoquinolin-6-yl]pyrrolidin-3-amine]	10.2	17
C[C@H]1CN(c2ccnc3c2cnn3C)Cc2ccc(N3CCNCC3)nc21 [Example 62, (8S)-8-methyl-6-(1-methylpyrazolo[3,4-b]pyridin-4-yl)-2-piperazin-1-yl-7,8-dihydro-5H-1,6-naphthyridine]	6.8	2
